Legend:
[1] = target: T1, recombinant human ADAMTS-5 (Homo sapiens, UniProt Q9UNA0); assay: ADAMTS-5 mediated break down of aggrecan (SDS-PAGE, silver stain); assay type: biochemical; settings: 10% racemic HICA, pH 7.4, incubation 2 d, FIG. 1 line 5
T1 construct: purchased Chemicon International Inc. CC1034
T1 sequence (Q9UNA0 262-930): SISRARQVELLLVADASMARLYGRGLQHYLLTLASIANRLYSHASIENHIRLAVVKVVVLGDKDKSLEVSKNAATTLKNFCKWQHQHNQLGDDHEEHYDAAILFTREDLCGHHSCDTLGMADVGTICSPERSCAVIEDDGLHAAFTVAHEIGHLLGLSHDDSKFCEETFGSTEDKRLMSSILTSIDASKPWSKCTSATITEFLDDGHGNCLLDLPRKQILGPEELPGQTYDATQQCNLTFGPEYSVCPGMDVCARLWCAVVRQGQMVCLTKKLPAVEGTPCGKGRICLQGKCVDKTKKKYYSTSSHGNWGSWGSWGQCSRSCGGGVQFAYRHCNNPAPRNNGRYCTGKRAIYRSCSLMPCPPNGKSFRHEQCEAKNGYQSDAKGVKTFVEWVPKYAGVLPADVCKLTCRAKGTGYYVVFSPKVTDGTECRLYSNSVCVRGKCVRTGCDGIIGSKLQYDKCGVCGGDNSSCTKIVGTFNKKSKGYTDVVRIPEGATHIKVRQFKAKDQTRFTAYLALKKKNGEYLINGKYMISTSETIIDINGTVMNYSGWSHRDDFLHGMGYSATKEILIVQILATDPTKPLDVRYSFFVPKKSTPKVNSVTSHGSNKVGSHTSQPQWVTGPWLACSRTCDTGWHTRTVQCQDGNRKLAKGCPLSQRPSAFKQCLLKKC
Procedure: (§1) As positive inhibitor controls Ilomastat (Ilo, CC1010, Millipore) and chlorhexidine (CHX, Corsodyl®, [2 mg/ml] (GlaxoSmithKline, Brøndby, Denmark) were used and 50 mM Tris-HCl-buffer (TNC): pH 7.5; 0.2 M NaCl; 1.0 mM CaCl2) was used as neutral assay buffer.
(§2) MMP-13 was preincubated 1 hour at 37° C. with p-aminophenylmercuric acetate (APMA, A9563, Sigma-Aldrich) to optimally activate (pro)MMP-13. As substrate, Aggrecan was added and then ADAMTS-5 or activated MMP-13 as catalytic/proteolytic enzyme and TNC, as neutral control, and 10% HICA, CHX or Ilo as protease/MMP-inhibitors let incubated together from 1 hour (h) to 2 days (d). The enzyme reactions terminated by boiling with modified Laemmli buffer. The samples were analysed by 8% SDS-PAGE and after electrophoresis the defragmentation of Aggrecan was visualised using Silver Stain Pierce®.
(§3) Sample with concentrations in lines: • 1. 0.25 μl molecular weight standards. Bio-Rad • 2. 4.2 μl Aggrecan (0.5 μg/μl) • 3. 4 μl ADAMTS-5 (0.1 μg/μl) • 4. 4.2 μl Aggrecan+4 μl ADAMTS-5+6 μl TNC-buffer. inc: 2d • 5. 4.2 μl Aggrecan+4 μl ADAMTS-5+6 μl 10% HICA. inc: 2d • 6. 4.2 μl Aggrecan+4 μl ADAMTS-5+6 μl CHX (2 mg/ml). inc: 2d • 7. 1 μl MMP-13 (0.2 μg/μl)+3 μl 2 mM APMA+6 μl TNC • 8. 4.2 μl Aggrecan+1 μl MMP-13 (0.2 μg/μl)+3 μl 2 mM APMA+6 μl TNC. inc: 1h • 9. 4.2 μl Aggrecan+1 μl MMP-13 (0.2 μg/μl)+3 μl 2 mM APMA+6 μl TNC. inc: 2d • 10. […]

[2] = target: T2, human Matrix metalloproteinase 13 (MMP-13) (Homo sapiens, UniProt P45452); assay: MMP-13 mediated break down of aggrecan (SDS-PAGE, silver stain); assay type: biochemical; settings: 10% racemic HICA, APMA-activated MMP-13, incubation 2 d, FIG. 1 line 11
T2 construct: purchased BioTeZ, Berlin-Buch, Berlin, Germany 30100802
Procedure: as §1, §2, §3

[3] = Characteristics of the subjects after four weeks on HICA; assay type: in vivo, human; settings: Mean ± SD
Procedure: In order to assess the effects of HICA on type II collagen and hyaluronic acid in healthy adults in vivo a study was conducted, where fifteen healthy male athletes (age 21.3±2.8 yr) volunteered for the 4-week study with double-blind design (Table 1). They were randomized to two parallel groups. Subjects in Group 1 (n=8, age 22.8±4.6 yr, height 179±6 cm, weight 76.2±6.9 kg, fat % 14.1±3.7%) received 583.2 mg of sodium salt of HICA (corresponding 500 mg of HICA) thrice a day for 4 weeks, and those in Group 2 (n=7, age 21.3±3.0 yr, height 178±5 cm, weight 73.5±5.0 kg, fat % 11.1±3.0%) received placebo (650 mg of maltodextrin) thrice a day for the same period. The subjects and the controls received repacked substance of equal volume (1.5 ml) which they were advised to mix with liquid. The subjects and the controls kept physical training constant during the study period, and they kept training daily. Serum specimens were obtained at baseline and in the end of the treatment. Specimens were aliquoted and immediately frozen; serum was collected and frozen at −70° C.
The Analysis of Variance (ANOVA) was used to assess statistical differences between the treatment groups. Data were handled as changes between the measurements before and after the treatments. Further, paired t-test was used to compare values before and after treatments. Probabilities less than 0.05 were regarded as statistically significant. Statistical analyses were carried out using the software program Systat for Windows (Statistics, Version 9, Evanston, IL, USA, 1992). The results are presented as means±SEM.

SMILES: CC(C)CC(O)C(=O)O (racemic) [HICA, 2-hydroxy-4-methylpentanoic acid]
- inhibition of break down of Aggrecan by ADAMTS-5 [1]: inhibited the break down of Aggrecan
- inhibition of break down of Aggrecan by MMP-13 [2]: inhibited the break down of Aggrecan
- Hematocrite after HICA ([3]; before 0.44 ± 0.02, p = n.s. vs placebo): 0.45 ± 0.02
- Body Fat procent after HICA ([3]; before 14.1 ± 3.7, p = n.s. vs placebo): 14.0 ± 2.5%
- Weight after HICA ([3]; before 76.2 ± 6.9, p = n.s. vs placebo): 76.5 ± 8.4 kg
- Hemoglobin after HICA ([3]; before 152 ± 7, p = n.s. vs placebo): 151 ± 5 g/L

From US11793779B2, “Hica for use in prophylaxis and/or treatment of a disease or condition involving degradation of cartilage and/or disruption of cartilage homeostasis and/or integrity” (Salarusta Oy, priority 2020, dated 2023)
